Assay results taken from patent US11174243B2, “Succinate forms and compositions of Bruton's tyrosine kinase inhibitors” (Sunesis Pharmaceuticals, Inc., priority 2016, dated 2021).
Where two headings read alike, the source gives them in different places.

Columns and labels:
[1] = Phase 1a single-dose study in humans, Stage 1: pharmacokinetics; format: in vivo, human; conditions: for Cmax / Vd/F / AUC(0-t) / Tmax / half-life: both sexes, human, plasma; for AUC(0-t): read-out: AUC0-24
Protocol: A first-in-human Phase 1a randomized, double-blind, placebo-controlled, single-dose study, was conducted in 3 stages: In Stage 1, four sequential cohorts of 8 subjects each were randomly assigned to receive progressively higher single oral administrations of Compound 2 at doses of 50, 100, 200, and 300 mg (n=6 per cohort; 3 males and 3 females) or placebo (n=2 per cohort; 1 male and 1 female).
The primary endpoint of safety was assessed by monitoring adverse events (AEs), laboratory abnormalities, and cardiac findings (ECG). Secondary endpoints included evaluation of the PK parameters of area under the plasma concentration-time curve (AUC), maximum plasma concentration (Cmax), time of maximum concentration (Tmax), apparent volume of distribution (Vd/F), terminal elimination half-life (t1/2), terminal elimination rate constant (λz), and apparent clearance (Cl/F) as well as the PD parameter of BTK inhibition in whole blood.
Compound 2 is a succinate salt. Plasma concentrations of the free base (Compound 1) were measured and used for estimation of PK parameters and elaboration of concentration/PD relationships.

[2] = biological target: T1, BTK (Homo sapiens, UniProt Q06187); experiment: Phase 1a single-dose study in humans: BTK inhibition (pBTK) in whole blood; format: in vivo
T1 construct: from tissue; host or cells: human whole blood
Protocol: The primary endpoint of safety was assessed by monitoring adverse events (AEs), laboratory abnormalities, and cardiac findings (ECG). Secondary endpoints included evaluation of the PK parameters of area under the plasma concentration-time curve (AUC), maximum plasma concentration (Cmax), time of maximum concentration (Tmax), apparent volume of distribution (Vd/F), terminal elimination half-life (t1/2), terminal elimination rate constant (λz), and apparent clearance (Cl/F) as well as the PD parameter of BTK inhibition in whole blood. BTK inhibition was calculated based on phosphorylated BTK (pBTK) and total BTK (totBTK). All postdose blood samples and one predose sample were lysed in the presence of protease and phosphatase inhibitors (PPi); a second predose sample was lysed without PPi to estimate maximum reduction in pBTK attainable. The ratio of predose pBTK/totBTK without PPi was subtracted from each pBTK/totBTK with PPi, and % pBTK vs predose was calculated: […]

[3] = biological target: T2, TXK (Homo sapiens, UniProt P42681); experiment: Kinase selectivity, TXK (Kd)
T2 sequence (P42681 1-527): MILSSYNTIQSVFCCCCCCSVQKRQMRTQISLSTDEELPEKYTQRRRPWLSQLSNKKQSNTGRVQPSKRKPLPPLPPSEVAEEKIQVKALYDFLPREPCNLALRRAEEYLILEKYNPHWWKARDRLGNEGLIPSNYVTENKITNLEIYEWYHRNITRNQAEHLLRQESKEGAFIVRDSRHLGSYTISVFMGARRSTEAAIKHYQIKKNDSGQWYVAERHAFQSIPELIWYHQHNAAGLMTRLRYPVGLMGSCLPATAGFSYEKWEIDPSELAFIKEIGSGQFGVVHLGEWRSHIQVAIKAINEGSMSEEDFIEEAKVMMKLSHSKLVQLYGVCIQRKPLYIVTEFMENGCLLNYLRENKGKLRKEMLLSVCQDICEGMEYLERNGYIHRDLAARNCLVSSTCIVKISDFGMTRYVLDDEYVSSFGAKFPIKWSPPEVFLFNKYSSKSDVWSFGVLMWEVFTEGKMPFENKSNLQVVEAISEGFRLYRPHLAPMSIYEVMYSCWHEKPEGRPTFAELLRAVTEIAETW

[4] = Phase 1a study Stage 2: food effect on pharmacokinetics; format: in vivo, human; conditions: 200 mg oral
Protocol: In Stage 2, the effects of food on the pharmacokinetics of Compound 2 were assessed. In this stage, 12 newly enrolled subjects (6 males, 6 females; Cohort 6) were administered Compound 2 on two separate occasions, either in a fasting or fed state, with a period of ≥72 hours between the two doses. The Compound 2 dose level was 200 mg. The 12 subjects were randomized such that 6 subjects (3 males, 3 females) received Compound 2 after an overnight fast, and 6 subjects (3 males, 3 females) received Compound 2 after ingestion of a standardized, high-fat meal. Approximately 4 days later, the subjects were crossed over so that those who received Compound 2 without food in the first period then received the drug with food, while those who received Compound 2 with food in the first period then received the drug without food.
The effects of food on the pharmacokinetics of Compound 2 were assessed after oral administration of 200 mg Compound 2 to 12 subjects in the fed and fasted states. The absorption rate of Compound 2 in fed state was decreased, with Tmax delayed by 2 hours and Cmax decreased by about 30%; however, there was no impact on the extent of absorption (AUC) and elimination (T½) of Compound 2.

[5] = Single-dose PK in monkey; format: in vivo; conditions: male, cynomolgus monkey, plasma
Protocol: A series of single-dose PK studies were conducted in rat, dog, and monkey to investigate the plasma PK of Compound 2 following single oral and single intravenous (IV) administration of Compound 2.
The PK of Compound 2 was studied in the male cynomolgus monkey (n=3) following single IV administration of Compound 2 at 1 mg/kg and single oral administration at 5 mg/kg (DRN105-0042). Following each administration, serial blood samples were collected at 0.08, 0.25, 0.5, 1, 2, 4, 7, 16, and 24 hours postdose.

[6] = oral, Cohort 1 (50 mg), mean (SD)
[7] = oral, Cohort 2 (100 mg), mean (SD)
[8] = oral, Cohort 3 (200 mg), mean (SD)
[9] = oral, Cohort 4 (300 mg), mean (SD)
[10] = 1 mg/kg, IV, dose 1, 70% PEG400/H2O, free base measured
[11] = 5 mg/kg, PO, dose 5, 0.1% CMC/0.2% Tween, free base measured

T1 sequence (Q06187 whole entry): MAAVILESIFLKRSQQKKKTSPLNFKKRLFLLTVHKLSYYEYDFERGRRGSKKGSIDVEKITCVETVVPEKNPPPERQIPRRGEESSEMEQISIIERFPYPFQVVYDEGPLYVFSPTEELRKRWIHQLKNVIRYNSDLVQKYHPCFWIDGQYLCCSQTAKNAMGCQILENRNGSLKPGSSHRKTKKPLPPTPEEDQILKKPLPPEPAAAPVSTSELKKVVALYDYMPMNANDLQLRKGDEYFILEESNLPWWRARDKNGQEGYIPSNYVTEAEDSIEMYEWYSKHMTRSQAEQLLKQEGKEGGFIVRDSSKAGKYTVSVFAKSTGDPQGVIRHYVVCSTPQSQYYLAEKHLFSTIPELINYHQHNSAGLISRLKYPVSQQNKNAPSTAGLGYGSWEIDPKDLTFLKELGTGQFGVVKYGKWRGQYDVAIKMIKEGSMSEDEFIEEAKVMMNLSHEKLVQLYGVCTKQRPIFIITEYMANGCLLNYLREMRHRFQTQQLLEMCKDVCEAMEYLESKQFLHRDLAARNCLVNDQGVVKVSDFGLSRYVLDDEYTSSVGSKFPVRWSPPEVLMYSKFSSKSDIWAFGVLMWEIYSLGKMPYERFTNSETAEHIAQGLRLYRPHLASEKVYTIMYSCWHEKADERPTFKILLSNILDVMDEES

Compound: NC(=O)[C@H]1CCN(c2ncnc(N)c2F)C[C@@H]1N1CCC[C@@H](Nc2cc(Cl)cc(C(F)(F)F)c2)C1=O [Compound 1, (3R,3′R,4′S)-1′-(6-amino-5-fluoropyrimidin-4-yl)-3-((3-chloro-5-(trifluoromethyl)phenyl)amino)-2-oxo-[1,3′-bipiperidine]-4′-carboxamide]
- t1/2 ([1]; 50 mg (single dose), after dosing with Compound 2, mean): 8.14 h
- dose proportionality of total exposure (AUC and Cmax) ([1]; 50-300 mg single oral dose): increased approximately proportionally with dose
- CL/F ([1]; Cohort 1 (50 mg), mean (SD)): 6139 (1250) mL/hr
- CL/F ([1]; Cohort 2 (100 mg), mean (SD)): 7162 (2900) mL/hr
- CL/F ([1]; Cohort 3 (200 mg), mean (SD)): 7886 (3724) mL/hr
- CL/F ([1]; Cohort 4 (300 mg), mean (SD)): 7615 (1595) mL/hr
- Cmax ([1]; oral, 50 mg (single dose), after dosing with Compound 2, mean): 1910 ng/mL
- Vd/F [1, 6]: 69.6 L
- AUC(0-t) [1, 6]: 7830 ng·h/mL
- Tmax ([1]; oral, Cohort 1 (50 mg), mean (SD), read-out: Tmax): 1.17 h
- half-life ([1]; oral, Cohort 1 (50 mg), mean (SD), read-out: t1/2 (converted)): 8.14 h
- Vd/F [1, 7]: 72.9 L
- Cmax ([1]; oral, Cohort 2 (100 mg), mean (SD), N 6): 3400 ng/mL
- AUC(0-t) [1, 7]: 14500 ng·h/mL
- Tmax ([1]; oral, Cohort 2 (100 mg), mean (SD), read-out: Tmax): 1.25 h
- half-life ([1]; oral, Cohort 2 (100 mg), mean (SD), read-out: t1/2 (converted)): 7.43 h
- Vd/F [1, 8]: 118 L
- Cmax ([1]; oral, Cohort 3 (200 mg), mean (SD), N 6): 5960 ng/mL
- AUC(0-t) [1, 8]: 29900 ng·h/mL
- Tmax ([1]; oral, Cohort 3 (200 mg), mean (SD), read-out: Tmax): 1 h
- half-life ([1]; oral, Cohort 3 (200 mg), mean (SD), read-out: t1/2 (converted)): 10.5 h
- Vd/F [1, 9]: 177 L
- Cmax ([1]; oral, Cohort 4 (300 mg), mean (SD), N 6): 6800 ng/mL
- AUC(0-t) [1, 9]: 35400 ng·h/mL
- Tmax ([1]; oral, Cohort 4 (300 mg), mean (SD), read-out: Tmax): 1.5 h
- half-life ([1]; oral, Cohort 4 (300 mg), mean (SD), read-out: t1/2 (converted)): 17 h
- half-life ([1]; 50-300 mg single oral dose, read-out: Mean t1/2 values across all dose cohorts): 7.43 to 17 h
- Cmax ([1]; Cohort 1 (50 mg Compound 2, single oral), mean (SD), N 6): 1910 ng/mL
- Tmax ([1]; all dose cohorts, oral, range: 0.5-3.0, read-out: median Tmax): 1 h
- % BTK inhibition ([2]; Compound 1 plasma concentrations lower or close to 100 ng/mL): ≤ 75%
- inhibition of pBTK ([2]; Compound 1 plasma concentrations ≥200 ng/mL): ≥ 85%
- inhibition of pBTK ([2]; all dose levels, rapid, profound and prolonged, FIG. 13): ~100%
- inhibition (pBTK) ([2]; plasma concentrations above 1000 ng/mL, most of the subjects, largely around 100%): > 85%
- Kd [3]: ≥ 200 nM

Compound: NC(=O)[C@H]1CCN(c2ncnc(N)c2F)C[C@@H]1N1CCC[C@@H](Nc2cc(Cl)cc(C(F)(F)F)c2)C1=O [Compound 2]
- apparent total body clearance and volume of distribution, fed vs fasted [4]: comparable in both food conditions
- impact of food on extent of absorption (AUC) and elimination (T½) ([4]; fed vs fasted): no impact
- decrease of Cmax in fed state ([4]; fed vs fasted, 12 subjects): about 30%
- Tmax ([4]; both sexes, human, plasma, fed vs fasted, 12 subjects, read-out: delay of Tmax in fed state): 2 h
- AUC(0-inf) [5, 10]: 1920 ng·h/mL
- C0 [5, 10]: 1600 ng/mL
- half-life [5, 10]: 1.9 h
- AUC(0-inf) [5, 11]: 3220 ng·h/mL
- Cmax [5, 11]: 1400 ng/mL
- Tmax [5, 11]: 1.5 h
- bioavailability ([5]; 5 mg/kg, PO, dose 5, 0.1% CMC/0.2% Tween, read-out: % F (oral bioavailability)): 33%
